Consider 2 compounds from patent US20090131354A1, “miR-126 REGULATED GENES AND PATHWAYS AS TARGETS FOR THERAPEUTIC INTERVENTION” (priority 2007, published 2009).

Type in all cases: cell-based, human
The test system of series [1] is Calu-3 lung cancer cells. The series is described as follows: Alamar Blue proliferation assay, Calu-3. The text has this:
(§1) The inventors assessed the therapeutic effect of hsa-miR-126 for lung cancer by using 11 individual lung cancer cell lines. To measure cellular proliferation of lung cancer cells, the following non-small cell lung cancer (NSCLC) cells were used: cells derived from lung adenocarcinoma (A549, H1299, H522, H838, Calu-3, HCC827, HCC2935), cells derived from lung squamous cell carcinoma (H520, H226), cells derived from lung bronchioalveolar carcinoma (H1650), and cells derived from lung large cell carcinoma (H460). Synthetic hsa-miR-126 (Pre-miR™-hsa-miR-126, Ambion cat. no. AM17100) or negative control (NC) miRNA (Pre-miR™ microRNA Precursor Molecule-Negative Control #2; Ambion cat. no. AM17111) was delivered via lipid-based transfection into A549, H1299, H522, H838, Calu-3, HCC827, HCC2935, H520, H1650, and H460 cells, and via electroporation into H226 cells.
Electroporation of H226 cells was carried out using the BioRad Gene Pulser Xcell™ instrument (BioRad Laboratories Inc., Hercules, Calif., USA) with the following settings: 5×10^6 cells with 5 μg miRNA in 200 μl OptiMEM (1.6 μM miRNA), square wave pulse at 250 V for 5 ms. Electroporated H226 cells were seeded at 7,000 cells per 96-well in a total volume of 100 μl. All cells except for Calu-3 cells were harvested 72 hours post transfection or electroporation for assessment of cellular proliferation. Calu-3 cells were harvested 10 days post transfection. Proliferation assays were performed using Alamar Blue (Invitrogen) following the manufacturer's instructions. As a control for inhibition of cellular proliferation, siRNA against the motor protein kinesin 11, also known as Eg5, was used. Eg5 is essential for cellular survival of most eukaryotic cells and a lack thereof leads to reduced cell proliferation and cell death (Weil et al., 2002). siEg5 was used in lipid-based transfection following the same experimental parameters that apply to miRNA. The inventors also used a DNA topoisomerase II inhibitor, etoposide, at a final concentration of 10 μM and 50 μM as an internal standard for the potency of miRNAs. […]
On the technique in general: The colour change of resazurin is a common sign of viable cells or microbes.

Series [2] relates to H226 lung cancer cells. In words: Alamar Blue proliferation assay, H226.
Source text: as §1
Lipid-based reverse transfections were carried out in triplicate according to a published protocol (Ovcharenko et al., 2005) and the following parameters: Cells (5,000-12,000 per 96 well), 0.1-0.2 μl Lipofectamine™ 2000 (cat. no. 11668-019, Invitrogen Corp., Carlsbad, Calif., USA) in 20 μl OptiMEM (Invitrogen), 30 nM final concentration of miRNA in 100 μl. […] Electroporated H226 cells were seeded at 7,000 cells per 96-well in a total volume of 100 μl. All cells except for Calu-3 cells were harvested 72 hours post transfection or electroporation for assessment of cellular proliferation. Calu-3 cells were harvested 10 days post transfection. Proliferation assays were performed using Alamar Blue (Invitrogen) following the manufacturer's instructions. As a control for inhibition of cellular proliferation, siRNA against the motor protein kinesin 11, also known as Eg5, was used. Eg5 is essential for cellular survival of most eukaryotic cells and a lack thereof leads to reduced cell proliferation and cell death (Weil et al., 2002). siEg5 was used in lipid-based transfection following the same experimental parameters that apply to miRNA. […]

For series [3], the system named is H1650 lung cancer cells. The series is described as follows: Alamar Blue proliferation assay, H1650.
Source text: as §1
(§2) Lipid-based reverse transfections were carried out in triplicate according to a published protocol (Ovcharenko et al., 2005) and the following parameters: Cells (5,000-12,000 per 96 well), 0.1-0.2 μl Lipofectamine™ 2000 (cat. no. 11668-019, Invitrogen Corp., Carlsbad, Calif., USA) in 20 μl OptiMEM (Invitrogen), 30 nM final concentration of miRNA in 100 μl. Electroporation of H226 cells was carried out using the BioRad Gene Pulser Xcell™ instrument (BioRad Laboratories Inc., Hercules, Calif., USA) with the following settings: 5×10^6 cells with 5 μg miRNA in 200 μl OptiMEM (1.6 μM miRNA), square wave pulse at 250 V for 5 ms. Electroporated H226 cells were seeded at 7,000 cells per 96-well in a total volume of 100 μl. All cells except for Calu-3 cells were harvested 72 hours post transfection or electroporation for assessment of cellular proliferation. Calu-3 cells were harvested 10 days post transfection. Proliferation assays were performed using Alamar Blue (Invitrogen) following the manufacturer's instructions. As a control for inhibition of cellular proliferation, siRNA against the motor protein kinesin 11, also known as Eg5, was used. […]

Series [4] relates to H460 lung cancer cells. In words: Alamar Blue proliferation assay, H460. To be noted: for % proliferation: relative to NC miRNA (100%).
Source text: as §1
Lipid-based reverse transfections were carried out in triplicate according to a published protocol (Ovcharenko et al., 2005) and the following parameters: Cells (5,000-12,000 per 96 well), 0.1-0.2 μl Lipofectamine™ 2000 (cat. no. 11668-019, Invitrogen Corp., Carlsbad, Calif., USA) in 20 μl OptiMEM (Invitrogen), 30 nM final concentration of miRNA in 100 μl. Electroporation of H226 cells was carried out using the BioRad Gene Pulser Xcell™ instrument (BioRad Laboratories Inc., Hercules, Calif., USA) with the following settings: 5×10^6 cells with 5 μg miRNA in 200 μl OptiMEM (1.6 μM miRNA), square wave pulse at 250 V for 5 ms. Electroporated H226 cells were seeded at 7,000 cells per 96-well in a total volume of 100 μl. All cells except for Calu-3 cells were harvested 72 hours post transfection or electroporation for assessment of cellular proliferation. Calu-3 cells were harvested 10 days post transfection. Proliferation assays were performed using Alamar Blue (Invitrogen) following the manufacturer's instructions. As a control for inhibition of cellular proliferation, siRNA against the motor protein kinesin 11, also known as Eg5, was used. Eg5 is essential for cellular survival of most eukaryotic cells and a lack thereof leads to reduced cell proliferation and cell death (Weil et al., 2002). siEg5 was used in lipid-based transfection following the same experimental parameters that apply to miRNA. The inventors also used a DNA topoisomerase II inhibitor, etoposide, at a final concentration of 10 μM and 50 μM as an internal standard for the potency of miRNAs. Etoposide is an FDA-approved DNA topoisomerase II inhibitor in the treatment of lung cancer. […] Percent (%) proliferation values from the Alamar Blue assay were normalized to values from cells treated with negative control miRNA. […]

In series [5] the test system is H520 lung cancer cells. The series is described as follows: Alamar Blue proliferation assay, H520.
Source text: as §1, §2

Turning to `COc1cc([C@@H]2c3cc4c(cc3[C@@H](O[C@@H]3O[C@@H]5CO[C@@H](C)O[C@H]5[C@H](O)[C@H]3O)[C@H]3COC(=O)[C@H]23)OCO4)cc(OC)c1O` [etoposide], the “% proliferation” value turned out to be 20.81% in series [1] (Calu-3, 10 μM, relative to NC miRNA (100%)); 13.53% in series [1] (Calu-3, relative to NC miRNA (100%)); 9.33% in series [2] (H226, 50 μM, relative to NC miRNA (100%)); 28.17% in series [2] (H226, relative to NC miRNA (100%)); 90.98% in series [3] (H1650, 10 μM, relative to NC miRNA (100%)); 60.31% in series [3] (H1650, relative to NC miRNA (100%)). Also, the “% proliferation” value in series [4] (H460, 10 μM) was determined as 32.13%; in series [4] (H460, 50 μM) it was 27.82%; in series [5] (H520, 50 μM, relative to NC miRNA (100%)), 48.53%; in series [5] (H520, relative to NC miRNA (100%)) it was 66.80%.
For the compound “hsa-miR-126 (UCGUACCGUGAGUAAUAAUGC; synthetic pre-miR form, further chemistry not given here) [Synthetic hsa-miR-126 (Pre-miR™-hsa-miR-126, Ambion cat. no. AM17100)]”, the “% proliferation” value in series [1] (Calu-3, 30 nM, 10 days, relative to NC miRNA (100%)) is on record as 65.05%; in series [2] (H226, 30 nM, electroporation, 72 h, relative to NC miRNA (100%)), 92.09%; in series [3] (H1650, 30 nM, 72 h, relative to NC miRNA (100%)), 80.67%; in series [4] (H460, 30 nM, 72 h) it was 29.09%; in series [5] (H520, 30 nM, 72 h, relative to NC miRNA (100%)), 80.99%. Moreover, the “reduction of proliferation (maximal inhibitory activity)” value in series [4] (H460, 30 nM) was 71%.
